Calls of active or inactive are those of the source.
Assays:
[1] = Luminescence Cell-Based Dose Response HTS to Identify Inhibitors of 5'UTR Stem-Loop Driven Prion Protein mRNA Translation in H4 Neuroglioblastoma Cells. [Related pubchem assays: 1827 (Project Summary), 1813 (Primary HTS)]; type: functional
[2] = alpha-synuclein stem-loop luciferase translation blockers – H4 neuroglioma cells, luminescence, confirmation (AID 1988); type: functional, cell-based
[3] = viability of uninfected HEp-2 cells – cell-based, HTS, cytotoxicity control for RSV inhibitor project, dose response (AID 2410); type: functional; details: human respiratory syncytial virus
[4] = Luminescence Cell-Based Dose Retest to Confirm Inhibitors of Cancer Stem Cells. [Related pubchem assays (depositor defined):AID2717, AID2721]; type: functional; details: Homo sapiens
INS1 = experiment: INS-1E survival protection against cytokine death – cell-based, luminescence, retest, dose response (AID 449756); type: functional; details: Rattus norvegicus;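 further: cell death triggered by IL-1 beta plus TNF-alpha plus IFN-gamma mixture; protective hits raise ATP signal compared with cytokine alone wells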
[5] = test system: Streptococcus sp. 'group A'; experiment: Streptococcus pyogenes SK(-)GAS viability under kanamycin – luminescence, BacTiterGlo, confirmation, counter-screen for streptokinase expression inhibitor project, dose response (AID 1900); type: functional, organism-based
Streptokinase A = target: T1, Streptokinase A (Streptococcus pyogenes serotype M1, UniProt P10520); experiment: viability-normalized secreted streptokinase activity reduction – plasminogen activation absorbance, OD405, dose response (AID 1914); type: functional, Streptococcus pyogenes M1 GAS;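 further: secreted streptokinase activity via plasminogen activation per viability signal from cell pellet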
T1 sequence (P10520 whole entry): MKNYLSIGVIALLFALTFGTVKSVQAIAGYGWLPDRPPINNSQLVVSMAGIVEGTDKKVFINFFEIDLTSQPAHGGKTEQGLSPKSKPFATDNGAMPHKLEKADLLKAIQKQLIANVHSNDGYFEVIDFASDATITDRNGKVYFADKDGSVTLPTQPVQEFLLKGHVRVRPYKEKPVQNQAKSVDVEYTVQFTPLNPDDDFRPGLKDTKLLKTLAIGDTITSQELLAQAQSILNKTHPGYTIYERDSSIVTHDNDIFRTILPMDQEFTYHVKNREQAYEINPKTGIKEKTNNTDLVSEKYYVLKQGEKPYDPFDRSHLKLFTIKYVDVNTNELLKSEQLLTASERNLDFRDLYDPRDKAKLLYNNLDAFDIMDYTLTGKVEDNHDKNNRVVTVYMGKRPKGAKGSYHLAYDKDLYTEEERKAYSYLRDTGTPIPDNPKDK

Streptococcus = experiment: GAS UMAA2166 growth inhibition – luminescence, BacTiterGlo, counter-screen for streptokinase expression inhibitor project, dose response (AID 1915); type: functional, organism-based;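 further: potency for reduction of bacterial viability or growth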
[6] = luciferase reporter signal suppression in cells – H4 neuroglioma cells, luminescence, dose response (AID 1990); type: functional, cell-based
[7] = Trypanosoma cruzi growth suppression in host cells – NIH3T3 host cells, beta-gal luminescence, confirmation (AID 2044); type: functional, cell-based;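 further: intracellular parasites grown in NIH/3T3 mouse fibroblasts as host cells; luminescent beta-galactosidase reporter signal from transgenic T. cruzi replicating inside host cells; inhibitors lower the luminescence signal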
[8] = NIH3T3 cell viability loss – ATP luminescence, mouse fibroblasts, counter-screen, dose response (AID 2010); type: functional, cell-based;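 further: cells exposed to compound for about 90 hours before reading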
Cytochrome P450 2C19 = Cytochrome P450 2C19 (Homo sapiens, UniProt P33261); experiment: Cytochrome panel assay with activity outcomes. Panel member name: p450-cyp2c19 Compounds with AC50 equal or less than 10 uM are considered active; type: functional; details: read-out: AC50
Chain of Cytochrome P450 2C19 (P33261 whole entry): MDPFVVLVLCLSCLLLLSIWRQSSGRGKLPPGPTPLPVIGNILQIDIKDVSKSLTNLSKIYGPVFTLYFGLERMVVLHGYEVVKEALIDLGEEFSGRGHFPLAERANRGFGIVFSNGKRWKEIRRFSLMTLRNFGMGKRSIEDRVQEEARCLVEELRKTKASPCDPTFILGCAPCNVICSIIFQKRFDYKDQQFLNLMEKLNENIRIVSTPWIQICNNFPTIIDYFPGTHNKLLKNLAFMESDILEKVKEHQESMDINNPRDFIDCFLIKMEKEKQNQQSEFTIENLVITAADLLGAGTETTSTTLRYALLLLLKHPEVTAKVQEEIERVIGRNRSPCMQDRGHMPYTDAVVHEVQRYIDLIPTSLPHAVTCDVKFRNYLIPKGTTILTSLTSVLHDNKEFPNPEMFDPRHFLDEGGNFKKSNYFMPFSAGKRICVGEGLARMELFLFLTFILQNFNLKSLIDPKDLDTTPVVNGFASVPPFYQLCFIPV

Cytochrome P450 2C9 = Cytochrome P450 2C9 (Homo sapiens, UniProt P11712)
Chain of Cytochrome P450 2C9 (P11712 whole entry): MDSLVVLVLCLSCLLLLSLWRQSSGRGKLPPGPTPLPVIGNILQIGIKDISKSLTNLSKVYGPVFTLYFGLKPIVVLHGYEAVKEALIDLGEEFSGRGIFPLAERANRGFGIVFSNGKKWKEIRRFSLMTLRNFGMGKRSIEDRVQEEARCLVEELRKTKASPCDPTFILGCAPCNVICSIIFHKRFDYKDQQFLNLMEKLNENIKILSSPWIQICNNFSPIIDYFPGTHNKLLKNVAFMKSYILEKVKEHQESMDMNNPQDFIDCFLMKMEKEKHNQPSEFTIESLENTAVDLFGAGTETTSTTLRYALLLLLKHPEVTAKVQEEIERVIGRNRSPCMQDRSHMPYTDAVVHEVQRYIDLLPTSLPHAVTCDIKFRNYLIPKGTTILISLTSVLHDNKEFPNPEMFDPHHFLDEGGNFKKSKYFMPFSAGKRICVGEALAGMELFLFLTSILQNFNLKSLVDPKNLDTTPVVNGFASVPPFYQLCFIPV

[9] = target: T2, Rac GTPase-activating protein 1 (Homo sapiens, UniProt Q9H0H5); experiment: blockers of MgcRacGAP-driven Rac1 GTP hydrolysis – biochemical, ADP Hunter fluorescence, primary and confirmatory, confirmation (AID 624330); type: functional
T2 sequence (Q9H0H5 whole entry): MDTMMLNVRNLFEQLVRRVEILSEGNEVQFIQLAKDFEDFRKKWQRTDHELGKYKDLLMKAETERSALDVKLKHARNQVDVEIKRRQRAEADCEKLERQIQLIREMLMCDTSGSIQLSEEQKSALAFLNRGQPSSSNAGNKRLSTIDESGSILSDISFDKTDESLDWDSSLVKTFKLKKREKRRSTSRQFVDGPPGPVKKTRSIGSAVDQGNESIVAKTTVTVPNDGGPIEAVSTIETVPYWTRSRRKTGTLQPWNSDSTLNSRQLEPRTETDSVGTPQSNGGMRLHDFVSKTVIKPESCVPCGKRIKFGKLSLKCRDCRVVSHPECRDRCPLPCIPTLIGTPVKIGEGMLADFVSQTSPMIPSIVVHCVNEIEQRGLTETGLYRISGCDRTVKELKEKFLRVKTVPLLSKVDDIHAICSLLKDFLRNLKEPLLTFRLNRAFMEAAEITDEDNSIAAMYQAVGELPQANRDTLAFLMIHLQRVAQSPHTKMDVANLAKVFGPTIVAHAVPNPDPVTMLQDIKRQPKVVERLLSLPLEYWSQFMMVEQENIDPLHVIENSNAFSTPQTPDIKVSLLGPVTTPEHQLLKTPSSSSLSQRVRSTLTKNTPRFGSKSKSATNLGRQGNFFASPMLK

[10] = NIH-3T3 fibroblast cytotoxicity, dose response, cytotoxicity control, cell-based, fluorescence, Alamar Blue, secondary assay (AID 2327); type: functional;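 further: NIH-3T3 mouse fibroblasts cultured with fluconazole at 8 µg/mL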
[11] = fluconazole-exposed Candida albicans growth modulators – fluorescence, retest, confirmation (AID 2467); type: functional, cell-based
Paired box protein Pax-8 = Paired box protein Pax-8 (Homo sapiens, UniProt Q06710); experiment: PAX8 transcriptional activity inhibition in RMG-I – RMG-I cells, luciferase, cherry-pick, dose response (AID 687027); type: functional, cell-based;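 further: luciferase reporter driven by Pax8 target thyroperoxidase promoter measured by SteadyGlo luminescence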
Chain of Paired box protein Pax-8 (Q06710 whole entry): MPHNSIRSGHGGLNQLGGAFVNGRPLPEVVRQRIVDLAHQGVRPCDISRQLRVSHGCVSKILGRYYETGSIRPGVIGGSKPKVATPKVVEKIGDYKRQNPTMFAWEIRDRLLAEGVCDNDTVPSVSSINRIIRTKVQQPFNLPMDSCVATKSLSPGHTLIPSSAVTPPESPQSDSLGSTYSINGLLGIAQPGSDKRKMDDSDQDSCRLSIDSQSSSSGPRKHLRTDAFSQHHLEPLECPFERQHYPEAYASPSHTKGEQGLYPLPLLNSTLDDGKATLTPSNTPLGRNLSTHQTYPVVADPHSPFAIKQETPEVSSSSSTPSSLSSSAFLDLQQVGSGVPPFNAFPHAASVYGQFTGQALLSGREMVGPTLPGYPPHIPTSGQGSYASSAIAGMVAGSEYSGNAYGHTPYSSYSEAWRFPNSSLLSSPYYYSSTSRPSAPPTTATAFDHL

Nc1nc(-c2ccc(NC(=O)c3ccco3)cc2)cs1
EC50 [1]: 11.7 µM (inconclusive)
EC50 [2]: 8.2 µM (inconclusive)

COc1ccc(/C=C/c2nc3cc(-c4ccccc4)ccc3o2)cc1O
CC50 [3]: 36.3 µM (active)
AC50 [4]: 4.06 µM (active)

CN(C)CCCN(C(=O)COc1ccc(Cl)cc1)c1nc2cc3c(cc2s1)OCO3
AC50 (INS1): 14.2 µM (active)

O=C(COCc1cc(-c2ccc3c(c2)OCO3)on1)N1CCN(c2cccc(C(F)(F)F)c2)CC1
AC50 [4]: 1.51 µM (active)

CCS(=O)(=O)N1Cc2ccccc2CC1C(=O)Nc1nnc(SCc2ccc(F)cc2)s1 (stereo unspecified)
EC50 [5]: 8.48 µM (active)
EC50 (Streptokinase A): > 150 µM (not active)
EC50 (Streptococcus): 91.2 µM (active)

CN(C)N1C(N)=C(C#N)C(c2cccc3ccccc23)C2=C1CC(c1ccccc1)CC2=O (stereo unspecified)
AC50 [4]: 1.15 µM (active)

CNc1oc(-c2ccc(Cl)cc2)nc1P(=O)(c1ccccc1)c1ccccc1
AC50 [4]: 7.13 µM (active)

COc1cccc(Nc2nc(-c3cccs3)nc3ccccc23)c1
CC50 [3]: 13.9 µM (active)
AC50 [4]: 3.42 µM (active)

COc1ccccc1N1CCN(S(=O)(=O)CCNC(=O)c2cc(OC)c(OC)c(OC)c2)CC1
EC50 [6]: > 120 µM (not active)
EC50 [1]: > 120 µM (not active)
EC50 [2]: 10.6 µM (active)

Cc1c(C(=O)NCc2ccc3c(c2)OCO3)oc2ccc(S(=O)(=O)N3CCCCCC3)cc12
EC50 [6]: 14.9 µM (active)
EC50 [1]: 15 µM (active)
EC50 [2]: 25.5 µM (active)
EC50 [7]: 0.775 µM (active)
EC50 [8]: > 60 µM (not active)

Cc1cccc(NC(=O)c2ccccc2OCC(=O)c2ccc(F)cc2)c1
EC50 [6]: > 120 µM (not active)
EC50 [1]: > 120 µM (not active)
EC50 [2]: > 120 µM (not active)

CN(C)S(=O)(=O)c1ccc(N2C(=O)CC2(/C=C/c2ccccc2)C(=O)NC2CCCC2)cc1 (stereo unspecified)
EC50 [6]: > 120 µM (not active)
EC50 [1]: > 120 µM (not active)
EC50 [2]: > 120 µM (not active)

Nc1nn2c(O)c3c(nc2c1N=Nc1ccc(Cl)cc1)CCCC3
EC50 [5]: 6.99 µM (active)
EC50 (Streptokinase A): > 150 µM (not active)
EC50 (Streptococcus): > 150 µM (not active)

CC(Cc1ccccc1)NC(=O)CSc1nc2nc3c(cc2c(=O)n1-c1ccccc1)COC(C)(C)C3 (stereo unspecified)
AC50 (Cytochrome P450 2C19): 35.5 µM (inconclusive)
AC50 (Cytochrome P450 2C9): 15.8 µM (inconclusive)

O=C(NC1CC1)c1ccc(-c2nc3ccccc3s2)s1
EC50 [6]: 4.13 µM (active)
EC50 [1]: 7.52 µM (active)
EC50 [2]: 13.6 µM (inconclusive)

CCOc1ccc(/C=N/NC(=S)NC2CC3CC2C2C=CCC32)cc1 (stereo unspecified)
EC50 [5]: 14.4 µM (active)
EC50 (Streptokinase A): > 150 µM (not active)
EC50 (Streptococcus): 19.8 µM (active)

CN(C)S(=O)(=O)c1cccc(NC2=NN=C(c3ccccc3)CS2)c1
AC50 (INS1): 7.27 µM (active)

CN(Cc1c(F)cccc1Cl)C(=O)c1cc2ccccc2o1
AC50 (INS1): > 260 µM (inactive)

COc1cc2cc(-c3ccc(O)cc3O)nc(C)c2cc1OC
IC50 [9]: 29.9 µM (active)

Cc1ccccc1-[n+]1c(-c2ccccc2)cc(-c2ccccc2)cc1-c1ccccc1.[O-][Cl+3]([O-])([O-])[O-]
EC50 [10]: 36.3 µM (active)
EC50 [11]: 0.21 µM (active)
AC50 (INS1): 2.26 µM (active)

CCCCN1C(=O)/C(=C/c2ccc(N(C)C)cc2)C(=O)N(Cc2ccco2)C1=O
AC50 (Cytochrome P450 2C19): 31.6 µM (inconclusive)
AC50 (Cytochrome P450 2C9): 35.5 µM (inconclusive)

Cc1cccc(C(=O)NN(C)c2nc(-c3ccccc3)nnc2C(F)(F)F)c1
AC50 (Cytochrome P450 2C19): 0.708 µM (inconclusive)
AC50 (Cytochrome P450 2C9): 0.316 µM (inconclusive)

C[C@@H]1CN([C@@H](C)CO)C(=O)c2cc(NC(=O)NC3CCCCC3)ccc2O[C@@H](C)CCCCO[C@H]1CN(C)Cc1ccc(C(F)(F)F)cc1
AC50 (Paired box protein Pax-8): 11.5 µM (active)

CCN1CCN(C(=O)c2ccc(CSc3ccc(C)cc3)cc2)CC1
EC50 [10]: > 150 µM (inactive)
AC50 [4]: < 0.16 µM (active)

Source: ChEMBL document CHEMBL1201862, “PubChem BioAssay data set” (2004)
